According to patent US9834526B2 (MERCK SHARP & DOHME CORP., priority 2013, dated 2017):
pIC50: −log10 of the molar value.

What follows are molecules tested against T1, wildtype HIV-1 protease (Human immunodeficiency virus type 1 group M subtype B, UniProt P04585) (assay: Inhibition of microbial expressed HIV protease (Pepcleav)). Settings: wild type HIV-1 protease expressed in E. coli, 20 pM enzyme, 400 micromolar peptide substrate, pH 5.5, LC-MS readout; mean of at least two independent experiments.
T1 construct: preincubated with the HIV-1 protease (wild type) enzyme in assay buffer; made in house; host or cells: Escherichia coli
Format: biochemical
Description: Assay for Inhibition of Microbial Expressed HIV Protease (“Pepcleav”)
Studies of the inhibition of the wildtype HIV-1 protease (which was expressed in Escherichia coli) were carried out with a peptide substrate [Val-Ser-Gln-Asn-(βnaphthyl)Ala-Pro-Ile-Val (SEQ ID NO:1)]. The inhibitor was first preincubated with the HIV-1 protease (wild type) enzyme in assay buffer (50 mM sodium acetate, pH 5.5, 100 mM NaCl, and 0.1% BSA) for 30 minutes at room temperature. Substrate was added to 400 micromolar in a total volume of 20 microliters containing 20 picomolar HIV-1 protease (final) and the reaction was incubated for 1 hour at 30° C. The reaction was quenched with the addition of formic acid and indinavir to 0.012% and 150 nM final concentrations, respectively. The product formation was determined after separation of product and substrate on a Zorbax Eclipse XDB-C18 column connected to an API 4000 mass spectrometer (Applied Biosystems) with multiple reaction monitoring (transitions were 644.5/428.9 and 615.4/422.2 (M1/M3) for product and indinavir respectively). The extent of inhibition of the reaction was determined from the peak area of the products. Analysis of the products, independently synthesized, provided quantitation standards and confirmation of the product composition.
In the case of `COC(=O)N[C@H](C(=O)Nc1ccccc1CC[C@@H]1CN[C@H](C)[C@@H](CSc2nncs2)O1)C(c1ccccc1)c1ccccc1` [Example 13, methyl N-[(1S)-1-benzhydryl-2-[[2-[2-[(2R,5R,6S)-5-methyl-6-(1,3,4-thiadiazol-2-ylsulfanylmethyl)morpholin-2-yl]ethyl]phenyl]amino]-2-oxo-ethyl]carbamate], the pIC50 was 7.90. With `COC(=O)N[C@H](C(=O)Nc1ccccc1CC[C@@H]1CN[C@H](C)[C@@H](CSc2nc(C)c(C)o2)O1)C(c1ccccc1)c1ccccc1` [Example 16, methyl N-[(1S)-1-benzhydryl-2-[[2-[2-[(2R,5R,6S)-6-[(4,5-dimethyloxazol-2-yl)sulfanylmethyl]-5-methyl-morpholin-2-yl]ethyl]phenyl]amino]-2-oxo-ethyl]carbamate] the pIC50 was 7.67. In the case of `COC(=O)N[C@H](C(=O)Nc1ccccc1CC[C@@H]1CN[C@H](C)[C@@H](C[S@@+]([O-])c2ccc(Cl)cc2)O1)C(c1ccccc1)c1ccccc1` [Example 41, N-(2-{2-[(2R,5R,6S)-6-{[(R)-(4-chlorophenyl)sulfinyl]methyl}-5-methylmorpholin-2-yl]ethyl}phenyl)-Nα-(methoxycarbonyl)-β-phenyl-L-phenylalaninamide], the pIC50 was 6.05. `COC(=O)N[C@H](C(=O)Nc1ccccc1CC[C@@H]1CN[C@H](C)[C@@H](CSc2cc(N3CCN(C)CC3)ncn2)O1)C(c1ccccc1)c1ccccc1` [Example 39] was tested, and the pIC50 was 6.38. In the case of `COC(=O)N[C@H](C(=O)Nc1ccccc1CC[C@@H]1CN[C@H](C)[C@@H](CSc2nc[nH]n2)O1)C(c1ccccc1)c1ccccc1` [Example 24, methyl N-[(1S)-1-benzhydryl-2-[[2-[2-[(2R,5R,6S)-5-methyl-6-(1H-1,2,4-triazol-3-ylsulfanylmethyl)morpholin-2-yl]ethyl]phenyl]amino]-2-oxo-ethyl]carbamate], the pIC50 was 7.23. With `COC(=O)N[C@H](C(=O)Nc1ccccc1CC[C@@H]1CN[C@H](C)[C@@H](CSc2nnc(Cn3nccc3C)o2)O1)C(c1ccccc1)c1ccccc1` [Example 6, methyl N-[(1S)-1-benzhydryl-2-[[2-[2-[(2R,5R,6S)-5-methyl-6-[[5-[(5-methylpyrazol-1-yl)methyl]-1,3,4-oxadiazol-2-yl]sulfanylmethyl]morpholin-2-yl]ethyl]phenyl]amino]-2-oxo-ethyl]carbamate] the pIC50 was 8.29. For `C[C@@H]1O[C@H](CCc2c(F)cncc2NC(=O)[C@@H](N)C(c2ccc(F)cc2)c2ccc(F)cc2)CN[C@@H]1COC(=O)NCC(F)(F)F` [Example 54, 4-fluoro-N-(5-fluoro-4-{2-[(2R,5R,6S)-6-methyl-5-({[(2,2,2-trifluoroethyl)carbamoyl]oxy}methyl)morpholin-2-yl]ethyl}pyridin-3-yl)-β-(4-fluorophenyl)-L-phenylalaninamide], the pIC50 was 7.52. `C[C@@H]1O[C@H](CCc2c(F)cccc2NC(=O)[C@@H](N)C(c2ccc(F)cc2)c2ccc(F)cc2)CN[C@@H]1COC(N)=O` [Example 36, N-[2-(2-{(2R,5R,6S)-5-[(carbamoyloxy)methyl]-6-methylmorpholin-2-yl}ethyl)-3-fluorophenyl]-4-fluoro-β-(4-fluorophenyl)-L-phenylalaninamide] gave a pIC50 of 7.41. For `COC(=O)N[C@H](C(=O)Nc1ccccc1CC[C@@H]1CN[C@H](C)[C@@H](CSc2ncc[nH]2)O1)C(c1ccccc1)c1ccccc1` [Example 29, methyl N-[(1S)-1-benzhydryl-2-[[2-[2-[(2R,5R,6S)-6-(1H-imidazol-2-ylsulfanylmethyl)-5-methyl-morpholin-2-yl]ethyl]phenyl]amino]-2-oxo-ethyl]carbamate], the pIC50 was 6.63. `COC(=O)N[C@H](C(=O)Nc1ccccc1CC[C@@H]1CN[C@H](C)[C@@H](CSc2nc3ccc(Cl)nc3s2)O1)C(c1ccccc1)c1ccccc1` [Example 21, methyl N-[(1S)-1-benzhydryl-2-[[2-[2-[(2R,5R,6S)-6-[(5-chlorothiazolo[5,4-b]pyridin-2-yl)sulfanylmethyl]-5-methyl-morpholin-2-yl]ethyl]phenyl]amino]-2-oxo-ethyl]carbamate] gave a pIC50 of 7.35. Work on `COC(=O)N[C@H](C(=O)Nc1ccccc1CC[C@@H]1CN[C@H](C)[C@@H](CSc2nc(C(F)(F)F)nc3ccccc23)O1)C(c1ccccc1)c1ccccc1` [Example 14, methyl N-[(1S)-1-benzhydryl-2-[[2-[2-[(2R,5R,6S)-5-methyl-6-[[2-(trifluoromethyl)quinazolin-4-yl]sulfanylmethyl]morpholin-2-yl]ethyl]phenyl]amino]-2-oxo-ethyl]carbamate] yielded a pIC50 of 7.85. `COC(=O)N[C@H](C(=O)Nc1ccccc1CC[C@@H]1CN[C@H](COCc2ccccc2)[C@@H](CSc2nnc(-c3ccncc3)o2)O1)C(c1ccccc1)c1ccccc1` [Example 33] showed a pIC50 of 9.33. `COC(=O)N[C@H](C(=O)Nc1ccccc1CC[C@@H]1CN[C@H](COCc2ccccc2)[C@@H](CO)O1)C(c1ccccc1)c1ccccc1` [Example 42, N-(2-{2-[(2R,5R,6S)-5-[(benzyloxy)methyl]-6-(hydroxymethyl)morpholin-2-yl]ethyl}phenyl)-Nα-(methoxycarbonyl)-β-phenyl-L-phenylalaninamide] gave a pIC50 of 7.10. Work on `C[C@H]1O[C@H](COc2c(F)cncc2NC(=O)[C@@H](N)C(c2ccc(F)cc2)c2ccc(F)cc2)CN[C@@H]1COC(N)=O` [Example 52, N-[4-({(2S,5R,6R)-5-[(carbamoyloxy)methyl]-6-methylmorpholin-2-yl}methoxy)-5-fluoropyridin-3-yl]-4-fluoro-β-(4-fluorophenyl)-L-phenylalaninamide] yielded a pIC50 of 7.28. Work on `C[C@H]1O[C@H](CCc2c(F)cccc2NC(=O)[C@@H](N)C(c2ccc(F)cc2)c2ccc(F)cc2)CN[C@@H]1COC(=O)NCc1ccc(F)cc1` [Example 48, 4-fluoro-N-(3-fluoro-2-{2-[(2R,5R,6R)-5-({[(4-fluorobenzyl)carbamoyl]oxy}methyl)-6-methylmorpholin-2-yl]ethyl}phenyl)-β-(4-fluorophenyl)-L-phenylalaninamide] yielded a pIC50 of 8.24. For `C[C@H]1O[C@H](CCc2c(F)cncc2NC(=O)[C@@H](N)C(c2ccc(F)cc2)c2ccc(F)cc2)CN[C@@H]1COC(=O)NCC(F)(F)F` [Example 57, 4-fluoro-N-(5-fluoro-4-{2-[(2R,5R,6R)-6-methyl-5-({[(2,2,2-trifluoroethyl)carbamoyl]oxy}methyl)morpholin-2-yl]ethyl}pyridin-3-yl)-β-(4-fluorophenyl)-L-phenylalaninamide], the pIC50 was 7.23. Molecule `COC(=O)N[C@H](C(=O)Nc1ccccc1CC[C@@H]1CN[C@H](C)[C@@H](CSc2nc(C)cc(C(F)(F)F)n2)O1)C(c1ccccc1)c1ccccc1` [Example 18, methyl N-[(1S)-1-benzhydryl-2-[[2-[2-[(2R,5R,6S)-5-methyl-6-[[4-methyl-6-(trifluoromethyl)pyrimidin-2-yl]sulfanylmethyl]morpholin-2-yl]ethyl]phenyl]amino]-2-oxo-ethyl]carbamate] has a pIC50 of 7.46. In the case of `C[C@H]1O[C@H](COc2c(F)cncc2NC(=O)[C@@H](N)C(c2ccc(F)cc2)c2ccc(F)cc2)CN[C@@H]1COC(=O)NCC(F)(F)F` [Example 51, 4-fluoro-N-(5-fluoro-4-{[(2S,5R,6R)-6-methyl-5-({[(2,2,2-trifluoroethyl)carbamoyl]oxy}methyl)morpholin-2-yl]methoxy}pyridin-3-yl)-β-(4-fluorophenyl)-L-phenylalaninamide], the pIC50 was 7.11. Work on `CC[C@@H](NC(=O)OC[C@H]1NC[C@@H](CCc2c(F)cccc2NC(=O)[C@@H](N)C(c2ccc(F)cc2)c2ccc(F)cc2)O[C@H]1C)c1ccc(F)cc1` [Example 38, 4-fluoro-N-[3-fluoro-2-(2-{(2R,5R,6S)-5-[({[(1R)-1-(4-fluorophenyl)propyl]carbamoyl}oxy)methyl]-6-methylmorpholin-2-yl}ethyl)phenyl]-β-(4-fluorophenyl)-L-phenylalaninamide] yielded a pIC50 of 8.36. Work on `COC(=O)N[C@H](C(=O)Nc1ccccc1CC[C@@H]1CN[C@H](C)[C@@H](CSc2nc(N)c3cn[nH]c3n2)O1)C(c1ccccc1)c1ccccc1` [Example 25, methyl N-[(1S)-1-[[2-[2-[(2R,5R,6S)-6-[(4-amino-1H-pyrazolo[3,4-d]pyrimidin-6-yl)sulfanylmethyl]-5-methyl-morpholin-2-yl]ethyl]phenyl]carbamoyl]-2,2-diphenyl-ethyl]carbamate] yielded a pIC50 of 7.00.
